Among the data in BindingDB's records for doi:10.1021/jm9603274 (R. W. Johnson Pharmaceutical Research Institute, 1996) are IC50 values, retold here.

The assay in a line: Inhibitory activity against thrombin induced platelet aggregation.

As usually defined, the IC50 is the concentration that inhibits the measured activity by half. As to `CN[C@H](Cc1ccccc1)C(=O)N1CCC[C@H]1C(=O)N[C@@H](CCCN=C(N)N)C(=O)c1nc2ccccc2s1` [RWJ-50353], the IC50 was 0.023 µM. The compound `CN[C@H](Cc1ccccc1)C(=O)N1CCC[C@H]1C(=O)N[C@H](C=O)CCCN=C(N)N` [1-(2-Methylamino-3-phenyl-propionyl)-pyrrolidine-2-carboxylic acid (1-formyl-4-guanidino-butyl)-amide] came in with an IC50 of 0.023 µM.
